# Measurements from US11261230B2, “Synthetic somatostatin receptor ligands” (TEL HASHOMER MEDICAL RESEARCH INFRASTRUCTURE AND SERVICES …, priority 2014, dated 2022).
# Read-outs that look alike come from different tables or passages of the source. *1 amine or outer side, *2 acyl side, *3 side chain or, on linkers, in order; H or OH if unused. Where a SMILES comes first, the peptide text is derived from it. Bridges are numbered along the chain shown (N, C = ends). [ ]: non-standard residue; d: D form. The star is where a group is joined. FITC = O=C1OC2(c3ccc(O)cc3Oc3cc(O)ccc32)c2ccc(NC(=S)*)cc21; N(2-mercaptoethyl)Gly = O=C(CN(CCS[*:3])[*:1])[*:2]; Aib = CC(C)(N)C(=O)O; GABA = NCCCC(=O)O
# Legend:
# PANC-1 tumors [1] = test: In vivo biodistribution in PANC-1 xenograft mice, Maestro fluorescence imaging of harvested tissue; settings: 1 day after administration, tissues as named in the value
# Protocol: (§9) Five different pharmaceutical compositions were prepared, each by dissolving 1 mg of a different Somatostatin receptor ligand in 1 liter PBS.
# (§10) Solid human-derived tumors were induced in 15 nude mice by subcutaneous injection of a suspension containing ˜5□10^5 human cancer cells (PANC-1) into the flank area of the mice.
# (§11) 2-3 weeks after the injection of the cancer cells, it was observed that the mice developed solid tumors with diameters of approximately 5-10 mm.
# (§12) 0.3 ml of each one of the five pharmaceutical compositions were systemically administered to three of the fifteen xenograft mice by injection into the tail vein using a 30 G needle.
# (§13) The fifteen mice were sacrificed and from the bodies tumors, pancreas, spleen, kidney and liver were harvested.
# (§14) The fluorescence of the harvested tissue was determined using the Maestro™ in vivo fluorescence imaging system (Cambridge Research & Instrumentation, Inc., Woburn, Mass., USA).
# BON1 tumor = test: In vivo bio-distribution by fluorescence imaging in mice bearing BON1 tumor; design: species or system nude mice; settings: 10 mg/kg IV
# Protocol: Pharmacokinetics and bio-distribution of some of the compounds was studied in mouse xenograft models for human cancer. Four pharmaceutical compositions according to the teachings herein, each comprising a single compound according to the teachings herein, were administered intravenously (IV) into lateral tail vein of nude mice bearing BON1 or H116 tumors. Animals were sacrificed at 1, 3, 6 and 24 hours after injection and tumor and normal tissues were excised. Tissue bio-distribution of the compounds were studied using fluorescence imaging techniques.
# Experiments were started 7-10 days after the injection, when the tumor diameter was approximately 5-10 mm. […]
# Whole-body fluorescence imaging, low-magnification fluorescence microscopy and cellular level fluorescence microscopy methods were used to study tissue biodistribution of the compounds. For these purposes, SZX-12 fluorescence microscope (Olympus, Japan), IX81 inverted fluorescence microscope (Olympus, Japan) equipped with appropriate filter-cubes and digital color camera (DP71, Olympus) were used. Additionally, whole-body fluorescence imaging was performed by WB imaging system (Prizmatix, Israel). Quantitative spectrally-resolved fluorescence imaging was carried out using a spectral imaging (SI) system (SD300, Applied Spectral Imaging, Migdal Ha'Emek, Israel). […]
# PANC-1 tumors [2] = settings: mouse, in vivo
# Protocol: as §9, §10, §11, §12, §13, §14
# human SSTR4 = molecular target: T1, human SSTR4 (Homo sapiens, UniProt P31391); test: Binding to transfected HEK cells expressing a single SSTRx subtype, FACS
# T1 construct: expressed in transfected cells; host or cells: HEK-293, transient transfection, pcDNA 3.1
# Protocol: (§1) The affinity of compounds 1-16 to each of the five SSTRx was tested using an in vitro model of transfected cell lines (HEK—human embryonic kidney), each expressing a single human SSTRx subtype. Biological activity assessment of the compounds to define a specific affinity to each subtype was performed by FACS and fluorescence imaging methods.
# (§2) Human SSTRx were expressed in the cells by transient transfection. Each SSTR was expressed separately, creating five different cell lines using human gene transcript.
# (§3) The transfection process is illustrated in FIG. 1. The transient transfection process was carried out before each experiment. Briefly, HEK cells were cultured in standard cell growth conditions. For testing, the cells were transferred into 96-well plates. The tested compounds were dissolved in DMSO and then diluted in a buffer solution to a final DMSO concentration of 5% as a composition according to the teachings herein. Various amounts of the thus-prepared compositions were added to the cells in medium in the 96-well plates and allowed to incubate for between 1 and 24 hours. Binding was determined using fluorescent microscopy and FACS.
# (§4) Qualitative assessment of binding efficiency was done by visual inspection and digital photography using an inverted fluorescent microscope. Quantitative assessment was done using FACS.
# (§5) HEK-293 cells (human embryonic kidney) were grown in Dulbecco's modified Eagle's medium (DMEM) supplemented with 4 mM glutamine, 10% fetal bovine serum (FBS) and 100 units/ml penicillin/streptomycin at 37° C./5% carbon dioxide. One day prior to transfection, the cells were trypsinized, counted and plated at a density of 3×10^5 per 35 mm diameter dish. Until 70% confluency, cells were transiently transfected with the pcDNA 3.1 vector bearing the coding region for the human SSTR human somatostatin receptor subtypes SSTR1-SSTR5. Transfections were carried out with JetPei transfection reagent (Polyplus-transfection, NY, USA) according to the manufacturer's recommendation. Briefly, 2 micrograms of plasmid DNA and 6 microliter of JetPei transfection reagent were used for each transfection. Each of the components were resuspended in 100 microliter of 150 mM NaCl, mixed and incubated for 25 minutes at room temperature and after incubation added to cells.
# (§6) Cells were then seeded in a 96-well flat-bottom microplate (Costar, Corning, N.Y.) at a concentration of 5×10^4 cells/well. Twelve hours later, the supernatant was removed and replaced with fresh DMEM containing various (in the nM range) concentrations of tested compounds 1-16. The cells were incubated for additional time intervals ranging from 0.5-24 hr. At the end of the incubation period, supernatant was discarded and the cells were washed twice with cold PBS. The plates were examined using IX81 inverted microscope (Olympus, Japan) equipped with […] digital camera. Additionally, a FACS assay was used for quantitative analysis.
# (§7) Quantitative assessment of binding affinity of Compounds 1-16 was performed by FACS in the transfected HEK cell model.
# (§8) Quantitatively, specific binding affinity was assessed as the percentage of double stained [(GR=green and red indicating transfection)/(R is total red) less (G is green indicating unspecific binding)]: specific binding affinity=[GR/R−G]
# human SSTR1 = molecular target: T2, human SSTR1 (Homo sapiens, UniProt P30872); test: as above
# T2 construct: expressed in transfected cells; host or cells: HEK-293, transient transfection, pcDNA 3.1
# Protocol: as §1, §2, §3, §4, §5, §6, §7, §8
# human SSTR2 = molecular target: T3, human SSTR2 (Homo sapiens, UniProt P30874); test: as above
# T3 construct: expressed in transfected cells; host or cells: HEK-293, transient transfection, pcDNA 3.1
# Protocol: as §1, §2, §3, §4, §5, §6, §7, §8
# human SSTR3 = molecular target: T4, human SSTR3 (Homo sapiens, UniProt P32745); test: as above
# T4 construct: expressed in transfected cells; host or cells: HEK-293, transient transfection, pcDNA 3.1
# Protocol: as §1, §2, §3, §4, §5, §6, §7, §8
# human SSTR5 = molecular target: T5, human SSTR5 (Homo sapiens, UniProt P35346); test: Binding to transfected HEK cells expressing a single SSTRx subtype, FACS and fluorescence microscopy
# T5 construct: expressed in transfected cells; host or cells: HEK-293, transient transfection, pcDNA 3.1
# Protocol: as §1, §2, §3, §4, §5, §6, §7, §8
# SSTR1-SSTR5 = test: Binding specificity across the five SSTRx transfected HEK cell lines; design: species or system human; settings: conclusions drawn from Table 2-A
# Protocol: Biological activity assessment of the compounds to define a specific affinity to each subtype was performed by FACS and fluorescence imaging methods. Human SSTRx were expressed in the cells by transient transfection. Each SSTR was expressed separately, creating five different cell lines using human gene transcript. The transfection process is illustrated in FIG. 1. The transient transfection process was carried out before each experiment. Briefly, HEK cells were cultured in standard cell growth conditions. For testing, the cells were transferred into 96-well plates. The tested compounds were dissolved in DMSO and then diluted in a buffer solution to a final DMSO concentration of 5% as a composition according to the teachings herein. Various amounts of the thus-prepared compositions were added to the cells in medium in the 96-well plates and allowed to incubate for between 1 and 24 hours. Binding was determined using fluorescent microscopy and FACS. Cells were then seeded in a 96-well flat-bottom microplate (Costar, Corning, N.Y.) at a concentration of 5×10^4 cells/well. […] Additionally, a FACS assay was used for quantitative analysis. […] Quantitatively, specific binding affinity was assessed as the percentage of double stained [(GR=green and red indicating transfection)/(R is total red) less (G is green indicating unspecific binding)]: specific binding affinity=[GR/R−G]
# [3] = FACS, transfected HEK, specific binding affinity = percentage double stained [GR/R−G], 0 = no binding detected
# [4] = Table 2 normalized according to the highest binding affinity of that compound
# [5] = Table 2 normalized to Compound 1 (=100)
# T2 sequence (P30872 whole entry): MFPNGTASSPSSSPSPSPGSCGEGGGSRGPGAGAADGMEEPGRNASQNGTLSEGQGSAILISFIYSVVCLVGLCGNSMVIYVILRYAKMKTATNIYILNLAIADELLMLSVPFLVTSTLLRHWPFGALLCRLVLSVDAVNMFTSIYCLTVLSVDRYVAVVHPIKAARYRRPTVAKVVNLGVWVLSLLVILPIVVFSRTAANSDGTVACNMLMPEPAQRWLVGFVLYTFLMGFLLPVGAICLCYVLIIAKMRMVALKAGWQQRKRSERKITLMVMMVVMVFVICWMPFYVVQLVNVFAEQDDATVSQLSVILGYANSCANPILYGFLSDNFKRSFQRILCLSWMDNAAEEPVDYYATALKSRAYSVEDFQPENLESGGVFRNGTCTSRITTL
# T1 sequence (P31391 whole entry): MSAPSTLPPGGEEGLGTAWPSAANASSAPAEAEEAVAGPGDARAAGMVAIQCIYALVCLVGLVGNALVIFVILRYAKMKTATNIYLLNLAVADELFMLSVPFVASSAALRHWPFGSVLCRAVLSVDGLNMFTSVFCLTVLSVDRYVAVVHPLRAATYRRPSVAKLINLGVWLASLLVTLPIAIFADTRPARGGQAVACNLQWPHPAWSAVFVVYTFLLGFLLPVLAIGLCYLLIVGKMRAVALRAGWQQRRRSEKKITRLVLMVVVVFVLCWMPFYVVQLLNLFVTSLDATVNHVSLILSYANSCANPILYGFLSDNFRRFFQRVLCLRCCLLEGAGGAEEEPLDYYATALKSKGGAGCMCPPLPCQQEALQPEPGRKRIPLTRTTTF
# T4 sequence (P32745 whole entry): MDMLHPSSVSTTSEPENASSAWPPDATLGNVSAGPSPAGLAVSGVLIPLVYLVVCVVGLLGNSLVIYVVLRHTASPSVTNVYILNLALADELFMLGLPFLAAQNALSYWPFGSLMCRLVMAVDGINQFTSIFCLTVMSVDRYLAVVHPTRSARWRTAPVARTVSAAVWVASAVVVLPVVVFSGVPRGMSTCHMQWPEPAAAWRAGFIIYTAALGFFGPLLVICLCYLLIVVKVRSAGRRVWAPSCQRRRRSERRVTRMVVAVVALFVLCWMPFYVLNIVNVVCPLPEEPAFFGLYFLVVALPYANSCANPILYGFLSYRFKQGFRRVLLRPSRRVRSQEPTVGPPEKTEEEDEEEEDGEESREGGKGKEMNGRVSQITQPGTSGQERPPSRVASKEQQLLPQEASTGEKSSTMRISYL
# T3 sequence (P30874 whole entry): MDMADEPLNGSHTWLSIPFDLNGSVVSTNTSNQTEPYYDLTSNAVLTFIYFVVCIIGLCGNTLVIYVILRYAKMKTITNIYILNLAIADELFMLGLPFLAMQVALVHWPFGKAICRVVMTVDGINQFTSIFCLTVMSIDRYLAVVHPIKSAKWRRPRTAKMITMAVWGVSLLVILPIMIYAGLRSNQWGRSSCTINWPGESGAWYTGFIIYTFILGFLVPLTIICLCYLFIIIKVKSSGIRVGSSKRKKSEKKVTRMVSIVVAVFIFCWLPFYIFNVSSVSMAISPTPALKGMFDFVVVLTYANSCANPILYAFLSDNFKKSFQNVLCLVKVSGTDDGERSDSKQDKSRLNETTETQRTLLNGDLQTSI
# T5 sequence (P35346 whole entry): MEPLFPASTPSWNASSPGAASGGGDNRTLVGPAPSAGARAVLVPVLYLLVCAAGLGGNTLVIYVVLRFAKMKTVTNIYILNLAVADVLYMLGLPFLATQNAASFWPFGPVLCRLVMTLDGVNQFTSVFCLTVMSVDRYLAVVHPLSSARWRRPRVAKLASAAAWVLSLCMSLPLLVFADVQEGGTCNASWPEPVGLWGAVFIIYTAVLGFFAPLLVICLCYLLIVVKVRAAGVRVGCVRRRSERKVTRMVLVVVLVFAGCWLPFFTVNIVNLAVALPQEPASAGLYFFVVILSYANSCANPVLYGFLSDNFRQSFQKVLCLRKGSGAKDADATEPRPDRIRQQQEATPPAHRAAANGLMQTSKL
smiles,measurement,setting,value
"C[C@@H](O)[C@@H]1NC(=O)[C@H](CCCN)NC(=O)[C@@H](Cc2c[nH]c3ccccc23)NC(=O)[C@H](Cc2c[nH]c3ccccc23)NC(=O)[C@H](Cc2ccccc2)NC(=O)[C@@H](NC(=O)[C@@H](Cc2ccccc2)NC(=O)CCCNC(=S)Nc2ccc3c(c2)C(=O)OC32c3ccc(O)cc3Oc3cc(O)ccc32)CSSCCN(CC(N)=O)C(=O)[C@H](Cc2ccccc2)NC1=O [Compound 3, FITC-GABA-D-Phe-Cys-Phe-Trp-D-Trp-Orn-Thr-Phe-GlyS2]",Intensity in healthy tissue (in words),PANC-1 tumors [1],"undetectable in spleen, kidney and liver tissue"
same,Time of maximal fluorescence signal in all tissues after administration,"BON1 tumor; spleen, pancreas and tumor, FIG. 10",6 h
"C[C@@H](O)[C@@H]1NC(=O)[C@H](CCCCN)NC(=O)[C@@H](Cc2c[nH]c3ccccc23)NC(=O)[C@H](Cc2c[nH]c3ccccc23)NC(=O)[C@H](Cc2ccc(O)cc2)NC(=O)[C@@H](NC(=O)[C@@H](Cc2ccccc2)NC(=O)CCCNC(=S)Nc2ccc3c(c2)C(=O)OC32c3ccc(O)cc3Oc3cc(O)ccc32)CSSCCN(CC(N)=O)C(=O)[C@H](Cc2ccccc2)NC1=O [Compound 4, FITC-GABA-D-Phe-Cys-Tyr-Trp-D-Trp-Lys-Thr-Phe-GlyS2] ({FITC-GABA}-[dF]CYW[dW]KTF[N(2-mercaptoethyl)Gly]-NH2; disulfide 2-9)","Pattern of bio-distribution, order of fluorescence in tissue samples","BON1 tumor; fluorescence microscopy, 24 hrs after administration",tumor>spleen>pancreas>kidney>liver
"C[C@@H](O)[C@@H]1NC(=O)[C@H](CCCCN)NC(=O)[C@@H](Cc2c[nH]c3ccccc23)NC(=O)[C@H](Cc2ccccc2)NC(=O)[C@H](CCCNC(=N)N)NC(=O)[C@@H](NC(=O)CCCNC(=S)Nc2ccc3c(c2)C(=O)OC32c3ccc(O)cc3Oc3cc(O)ccc32)CSSCCN(CC(N)=O)C(=O)[C@H](Cc2ccccc2)NC1=O [Compound 9, FITC-GABA-Cys-Arg-Phe-D-Trp-Lys-Thr-Phe-GlyS2] ({FITC-GABA}-CRF[dW]KTF[N(2-mercaptoethyl)Gly]-NH2; disulfide 1-8)",Intensity in healthy tissue (in words),PANC-1 tumors [2],undetectable in the healthy tissues
"C[C@@H](O)[C@@H]1NC(=O)C(C)(C)NC(=O)[C@@H](Cc2c[nH]c3ccccc23)NC(=O)[C@H](Cc2c[nH]c3ccccc23)NC(=O)[C@H](Cc2ccccc2)NC(=O)[C@@H](NC(=O)[C@@H](Cc2ccccc2)NC(=O)CCCNC(=S)Nc2ccc3c(c2)C(=O)OC32c3ccc(O)cc3Oc3cc(O)ccc32)CSSCCN(CC(N)=O)C(=O)[C@H](Cc2ccccc2)NC1=O [Compound 13, FITC-GABA-D-Phe-Cys-Phe-Trp-D-Trp-Aib-Thr-Phe-GlyS2] ({FITC-GABA}-[dF]CFW[dW][Aib]TF[N(2-mercaptoethyl)Gly]-NH2; disulfide 2-9)",Relative binding affinity SSTR4,human SSTR4; [3],4
same,Adjusted binding affinity SSTR4,human SSTR4; [4],0.44
same,Binding affinity to SSTR4 relative to Compound 1,human SSTR4; [5],18
same,Relative binding affinity SSTR1,human SSTR1; [3],1
same,Adjusted binding affinity SSTR1,human SSTR1; [4],0.11
same,Binding affinity to SSTR1 relative to Compound 1,human SSTR1; [5],33
same,Relative binding affinity SSTR2,human SSTR2; [3],0
same,Adjusted binding affinity SSTR2,human SSTR2; [4],0
same,Binding affinity to SSTR2 relative to Compound 1,human SSTR2; [5],0
same,Relative binding affinity SSTR3,human SSTR3; [3],6
same,Adjusted binding affinity SSTR3,human SSTR3; [4],0.67
same,Binding affinity to SSTR3 relative to Compound 1,human SSTR3; [5],35
same,Relative binding affinity SSTR5,human SSTR5; [3],9
same,Adjusted binding affinity SSTR5,human SSTR5; [4],1
same,Binding affinity to SSTR5 relative to Compound 1,human SSTR5; [5],32
same,Binding specificity among the five SSTRx (in words),SSTR1-SSTR5,"to SSTR3 and SSTR5 and not SSTR1, SSTR2 and SSTR4"
